Laboratory results from PubChem BioAssay AID328 (DTP/NCI, 2004).
Where “and” joins values, the source holds several entries; their conditions need not be identical. Equal values may be shown once. Inconclusive results and toxic doses are left out.

Tested on: BDF1 mice, P388 leukemia ip, median survival T/C
Experiment: NCI In Vivo Anticancer Drug Screen. Data for tumor model P388 Leukemia (intraperitoneal) in B6D2F1 (BDF1) mice
Settings: endpoint: median survival time, higher = longer survival
How it was run: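 Reported as T/C, where T is the survival measurement in dosed animals and C the same measurement in vehicle controls.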

## O=c1[nH]cc(F)c(=O)[nH]1
dose: 5.0 mg/kg/injection, schedule: Q03HX024 (ip), vehicle: saline
  T/C: 210 % of control
dose: 7.5 mg/kg/injection, schedule: Q01DX009 (ip), vehicle: saline
  T/C: 166 % of control and 179 % of control and 184 % of control
dose: 7.5 mg/kg/injection, schedule: Q03HX024 (ip), vehicle: saline
  T/C: 219 % of control
dose: 8.0 mg/kg/injection, schedule: Q01DX005 (ip), vehicle: saline
  T/C: 163 % of control
dose: 9.4 mg/kg/injection, schedule: Q04DX003 (ip), vehicle: saline
  T/C: 120 % of control
dose: 10.0 mg/kg/injection, schedule: Q01DX010 (ip), vehicle: acetone
  T/C: 95 % of control
dose: 10.0 mg/kg/injection, schedule: Q03HX024 (ip), vehicle: saline
  T/C: 233 % of control
dose: 11.0 mg/kg/injection, schedule: Q01DX009 (ip), vehicle: saline
  T/C: 211 % of control
dose: 13.0 mg/kg/injection, schedule: Q01DX009 (ip), vehicle: saline
  T/C: 122 % of control
dose: 13.2 mg/kg/injection, schedule: Q01DX009 (ip), vehicle: saline
  T/C: 250 % of control
dose: 13.3 mg/kg/injection, schedule: Q01DX009 (ip), vehicle: Klucel (hydroxypropylcellulose) (HPC)
  T/C: 150 % of control
dose: 13.3 mg/kg/injection, schedule: Q01DX009 (ip), vehicle: saline sonified
  T/C: 181 % of control
dose: 14.0 mg/kg/injection, schedule: Q01DX009 (ip), vehicle: saline
  T/C: 169 % of control
dose: 15.0 mg/kg/injection, schedule: Q03HX024 (ip), vehicle: saline
  T/C: 254 % of control
dose: 16.0 mg/kg/injection, schedule: Q01DX005 (ip), vehicle: saline
  T/C: 170 % of control
dose: 16.0 mg/kg/injection, schedule: Q01DX009 (ip), vehicle: saline
  T/C: 228 % of control and 169 % of control
dose: 20.0 mg/kg/injection, schedule: Q01DX005 (ip), vehicle: water
  T/C: 205 % of control
dose: 20.0 mg/kg/injection, schedule: Q01DX009 (ip), vehicle: Klucel (hydroxypropylcellulose) (HPC)
  T/C: 100 % of control
dose: 20.0 mg/kg/injection, schedule: Q01DX009 (ip), vehicle: saline sonified
  T/C: 113 % of control
dose: 20.0 mg/kg/injection, schedule: Q01DX010 (ip), vehicle: acetone
  T/C: 213 % of control
dose: 20.0 mg/kg/injection, schedule: Q04DX003 (ip), vehicle: saline
  T/C: 166 % of control
dose: 22.5 mg/kg/injection, schedule: Q03HX024 (ip), vehicle: saline
  T/C: 112 % of control
dose: 23.0 mg/kg/injection, schedule: Q01DX009 (ip), vehicle: saline
  T/C: 205 % of control
dose: 24.0 mg/kg/injection, schedule: Q01DX009 (ip), vehicle: saline
  T/C: 243 % of control
dose: 25.0 mg/kg/injection, schedule: Q04DX003 (ip), vehicle: water
  T/C: 150 % of control
dose: 26.0 mg/kg/injection, schedule: Q04DX003 (ip), vehicle: saline
  T/C: 96 % of control and 111 % of control
dose: 27.0 mg/kg/injection, schedule: Q01DX009 (ip), vehicle: Klucel (hydroxypropylcellulose) (HPC)
  T/C: 166 % of control
dose: 27.0 mg/kg/injection, schedule: Q01DX009 (ip), vehicle: saline sonified
  T/C: 181 % of control
dose: 27.0 mg/kg/injection, schedule: Q04DX003 (ip), vehicle: saline
  T/C: 154 % of control
dose: 32.0 mg/kg/injection, schedule: Q01DX005 (ip), vehicle: saline
  T/C: 185 % of control
dose: 36.0 mg/kg/injection, schedule: Q04DX003 (ip), vehicle: saline
  T/C: 153 % of control and 165 % of control
dose: 39.0 mg/kg/injection, schedule: Q01DX009 (ip), vehicle: saline
  T/C: 87 % of control
dose: 40.0 mg/kg/injection, schedule: Q01DX005 (ip), vehicle: water
  T/C: 185 % of control
dose: 40.0 mg/kg/injection, schedule: Q01DX010 (ip), vehicle: acetone
  T/C: 100 % of control
dose: 50.0 mg/kg/injection, schedule: Q01DX001 (ip), vehicle: saline
  T/C: 153 % of control
dose: 50.0 mg/kg/injection, schedule: Q04DX003 (ip), vehicle: saline
  T/C: 152 % of control and 158 % of control
dose: 50.0 mg/kg/injection, schedule: Q04DX003 (ip), vehicle: water
  T/C: 170 % of control
dose: 65.0 mg/kg/injection, schedule: Q04DX003 (ip), vehicle: saline
  T/C: 98 % of control
dose: 66.0 mg/kg/injection, schedule: Q01DX001 (ip), vehicle: saline
  T/C: 100 % of control and 111 % of control
dose: 75.0 mg/kg/injection, schedule: Q01DX001 (ip), vehicle: water
  T/C: 150 % of control
dose: 75.0 mg/kg/injection, schedule: Q04DX003 (ip), vehicle: saline
  T/C: 163 % of control and 196 % of control
dose: 80.0 mg/kg/injection, schedule: Q01DX010 (ip), vehicle: saline
  T/C: 90 % of control
dose: 88.0 mg/kg/injection, schedule: Q01DX001 (ip), vehicle: saline
  T/C: 99 % of control and 108 % of control
dose: 100.0 mg/kg/injection, schedule: Q04DX003 (ip), vehicle: water
  T/C: 190 % of control
dose: 108.0 mg/kg/injection, schedule: Q04DX003 (ip), vehicle: saline
  T/C: 98 % of control
dose: 160.0 mg/kg/injection, schedule: Q01DX001 (ip), vehicle: saline
  T/C: 104 % of control and 108 % of control and 117 % of control
dose: 175.0 mg/kg/injection, schedule: Q01DX001 (ip), vehicle: saline
  T/C: 150 % of control
dose: 180.0 mg/kg/injection, schedule: Q04DX003 (ip), vehicle: saline
  T/C: 100 % of control
dose: 200.0 mg/kg/injection, schedule: Q04DX003 (ip), vehicle: water
  T/C: 100 % of control
dose: 225.0 mg/kg/injection, schedule: Q01DX001 (ip), vehicle: saline
  T/C: 117 % of control
dose: 240.0 mg/kg/injection, schedule: Q01DX001 (ip), vehicle: saline
  T/C: 105 % of control and 106 % of control
dose: 250.0 mg/kg/injection, schedule: Q01DX001 (ip), vehicle: saline
  T/C: 90 % of control
dose: 360.0 mg/kg/injection, schedule: Q01DX001 (ip), vehicle: saline
  T/C: 109 % of control and 111 % of control
dose: 400.0 mg/kg/injection, schedule: Q01DX001 (ip), vehicle: saline
  T/C: 100 % of control
